Test results: ChEMBL document CHEMBL3351224 (ACS Med Chem Lett, 2014)
pIC50: −log10 of the molar value.

Columns and labels:
[1] = molecular target: T1, Cysteinyl leukotriene receptor 2 (Homo sapiens, UniProt Q9NS75); test: Antagonist activity at human CysLT2 receptor expressed in HEK293 cells assessed as inhibition of LTD4-inudced intracellular calcium influx preincubated for 30 mins before LTD4 addition by Fura2-AM assay; format: functional, cell-based
T1 sequence (Q9NS75 whole entry): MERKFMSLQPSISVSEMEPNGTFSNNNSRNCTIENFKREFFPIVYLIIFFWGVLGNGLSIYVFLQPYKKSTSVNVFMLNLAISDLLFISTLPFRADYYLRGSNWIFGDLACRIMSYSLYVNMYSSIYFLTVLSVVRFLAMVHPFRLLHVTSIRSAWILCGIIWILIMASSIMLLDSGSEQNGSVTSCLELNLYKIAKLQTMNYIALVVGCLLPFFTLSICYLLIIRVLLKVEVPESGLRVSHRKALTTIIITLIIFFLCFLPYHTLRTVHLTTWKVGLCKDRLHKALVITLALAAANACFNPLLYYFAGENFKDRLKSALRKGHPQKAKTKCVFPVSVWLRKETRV

[2] = molecular target: T2, Cysteinyl leukotriene receptor 1 (Homo sapiens, UniProt Q9Y271); test: Antagonist activity at human CysLT1 receptor expressed in CHO cells assessed as inhibition of LTD4-inudced intracellular calcium influx preincubated for 30 mins before LTD4 addition by Fura2-AM assay; format: functional, cell-based
T2 sequence (Q9Y271 whole entry): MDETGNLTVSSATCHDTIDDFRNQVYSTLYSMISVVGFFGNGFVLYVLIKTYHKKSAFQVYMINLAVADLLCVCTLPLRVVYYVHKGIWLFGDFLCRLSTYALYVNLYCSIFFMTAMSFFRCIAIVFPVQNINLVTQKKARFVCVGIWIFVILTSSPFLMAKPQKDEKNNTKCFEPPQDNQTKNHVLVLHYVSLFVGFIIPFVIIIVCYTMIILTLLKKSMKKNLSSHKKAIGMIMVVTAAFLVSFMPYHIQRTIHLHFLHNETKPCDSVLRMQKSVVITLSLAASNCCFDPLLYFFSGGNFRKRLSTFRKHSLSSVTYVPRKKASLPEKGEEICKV

[3] = Half life in rat at 1 mg/kg, iv; format: ADME, organism-based; set-up: dose 1 mg/kg, route intravenous; settings: in vivo
[4] = Oral bioavailability in rat at 30 mg/kg; format: ADME, organism-based; settings: in vivo
[5] = AUC in rat at 30 mg/kg, po; format: ADME, organism-based; set-up: dose 30 mg/kg, route oral; settings: plasma
[6] = Clearance in rat at 1 mg/kg, iv; format: ADME, organism-based; set-up: dose 1 mg/kg, route intravenous; settings: in vivo
[7] = molecular target: T3, Cysteinyl leukotriene receptor 2 (Homo sapiens) (UniProt Q9NS75); test: Antagonist activity at human CysLT2 receptor expressed in HEK293 cells assessed as inhibition of LTD4-inudced intracellular calcium influx preincubated at 10 uM for 30 mins before LTD4 addition by Fura2-AM assay; format: functional, cell-based
T3 sequence (whole entry): T1 sequence (Q9NS75 whole entry)

Row | Structure (SMILES) | pIC50 [1] | pIC50 [2] | further results
1 | O=C(O)CCCN1CC(C(=O)O)Oc2c(NC(=O)c3ccc(OCCOc4ccccc4)cc3)cccc21 (configuration not stated) | 5.82 | 5.52 | 
2 | O=C(O)CCCN1CC(C(=O)O)Oc2c(NC(=O)c3ccc(OCCCCc4ccccc4)cc3)cccc21 (configuration not stated) |  |  | half-life [3]: 3.4 h; bioavailability [4]: 1.5%; AUC [5]: 1.6 µg·h/mL; clearance [6]: 0.282 L/h/kg
3 | O=C(O)CCCCN1CC(C(=O)O)Oc2c(NC(=O)c3ccc(OCCCCc4ccccc4)cc3)cccc21 (configuration not stated) | 6.77 | 7.36 | 
4 | CCCCC/C=C\C\C=C/C=C/C=C/[C@@H](Sc1ccc(C(=O)O)cc1)[C@@H](O)CCCC(=O)O | 6.52 | 6.36 | 
5 | O=C(O)CCCN1CC(C(=O)O)Oc2c(NC(=O)c3ccc(OCCCOc4ccccc4)cc3)cccc21 (configuration not stated) | 7.80 | 6.54 | 
6 | CCN(CC)C(=O)/C=C(\C)c1ccc2oc(C(=O)c3ccc(C#N)cc3)c(NC(=O)/C(C#N)=C(/C)O)c2c1 | 5.11 | 5.01 | 
7 | O=C(O)CCCC(=O)N1CC(C(=O)O)Oc2c(NC(=O)c3ccc(OCCCCc4ccccc4)cc3)cccc21 (configuration not stated) | 5.74 | > 9.00 | 
8 | CCCC(=O)N1CC(C(=O)O)Oc2c(NC(=O)c3ccc(OCCCCc4ccccc4)cc3)cccc21 (configuration not stated) | 5.43 | 6.52 | 
9 | O=C(O)CCC(=O)N1CC(C(=O)O)Oc2c(NC(=O)c3ccc(OCCCCc4ccccc4)cc3)cccc21 (configuration not stated) | 6.05 | 8.85 | 
10 | CCC(=O)N1CC(C(=O)O)Oc2c(NC(=O)c3ccc(OCCCCc4ccccc4)cc3)cccc21 (configuration not stated) | 5.28 | 6.82 | 
11 | O=C(O)CCCCCN1CC(C(=O)O)Oc2c(NC(=O)c3ccc(OCCCCc4ccccc4)cc3)cccc21 (configuration not stated) | 6.54 | 6.89 | 
12 | O=C(O)CCCN1CC(C(=O)O)Oc2c(NC(=O)c3ccc(OCCCCCc4ccccc4)cc3)cccc21 (configuration not stated) | 9.21 | 6.92 | 
13 | O=C(Nc1ccc2c(c1)NCC(C(=O)O)O2)c1ccc(OCCCCc2ccccc2)cc1 (configuration not stated) |  | 6.08 | inhibition [7]: 25%
14 | CC(=O)N1CC(C(=O)O)Oc2c(NC(=O)c3ccc(OCCCCc4ccccc4)cc3)cccc21 (configuration not stated) | 5.44 | 7.89 | 
15 | O=C(O)CCCCC(=O)N1CC(C(=O)O)Oc2c(NC(=O)c3ccc(OCCCCc4ccccc4)cc3)cccc21 (configuration not stated) | 6.05 | 7.92 | 
16 | O=C(O)c1ccc(OCCCc2ccc(OCCCCOc3ccccc3)cc2)c(C(=O)NC2CCCC(C(=O)O)C2)c1 (configuration not stated) | 7.28 | < 5.60 | 
17 | O=C(Nc1ccc2c(c1)OC(C(=O)O)CN2)c1ccc(OCCCCc2ccccc2)cc1 (configuration not stated) |  | 5.34 | inhibition [7]: 36%
18 | O=C(O)CCCN1CC(C(=O)O)Oc2c(NC(=O)c3ccc(OCCCc4ccccc4)cc3)cccc21 (configuration not stated) | 7.17 | 5.89 | 
19 | O=C(Nc1cccc2c1OC(C(=O)O)CN2)c1ccc(OCCCCc2ccccc2)cc1 (configuration not stated) | 5.34 | 7.27 | 
20 | O=C(O)CCCN1CC(C(=O)O)Oc2c(NC(=O)c3ccc(OCCCCOc4ccccc4)cc3)cccc21 (configuration not stated) | 7.77 | 7.49 | 
